In ChEMBL document CHEMBL1151918 (Bioorg Med Chem, 2009):
Where a name gives a salt, the structure may show the parent alone.

What was measured:
Histamine H4 receptor [1] = target: T1, Histamine H4 receptor (Homo sapiens, UniProt Q9H3N8); assay: Displacement of [3H]histamine from human histamine H4 receptor expressed in human SK-N-MC cells by liquid scintillation counting; type: cell-based
Histamine H3 receptor = Histamine H3 receptor (Homo sapiens, UniProt Q9Y5N1); assay: Displacement of [3H]N-alpha-methylhistamine from human histamine H3 receptor expressed in human SK-N-MC cells by liquid scintillation counting; type: cell-based
Sequence of Histamine H3 receptor (Q9Y5N1 whole entry): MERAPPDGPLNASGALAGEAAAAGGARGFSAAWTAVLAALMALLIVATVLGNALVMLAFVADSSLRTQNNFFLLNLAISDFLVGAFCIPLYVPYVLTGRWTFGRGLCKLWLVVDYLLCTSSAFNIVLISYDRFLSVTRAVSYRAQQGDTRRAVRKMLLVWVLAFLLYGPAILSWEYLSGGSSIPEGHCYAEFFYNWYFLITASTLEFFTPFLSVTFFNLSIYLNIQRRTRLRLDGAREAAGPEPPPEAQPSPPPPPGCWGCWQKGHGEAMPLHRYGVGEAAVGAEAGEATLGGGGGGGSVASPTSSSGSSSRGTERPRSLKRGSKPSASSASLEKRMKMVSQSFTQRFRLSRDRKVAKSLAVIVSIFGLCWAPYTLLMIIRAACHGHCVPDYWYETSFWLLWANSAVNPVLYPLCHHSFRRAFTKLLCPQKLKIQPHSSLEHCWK

Histamine H4 receptor [2] = target: T1, Histamine H4 receptor; assay: Antagonist activity at human histamine H4 receptor expressed in human SK-N-MC cells assessed as inhibition of 2-[3-(imidazol-4-yl)-propyl]-1-(4-iodo-benzyl)-isothiourea dihydrobromide-induced intrinsic activity; type: functional, cell-based; details: read-out: pA2 (converted)

T1 sequence (Q9H3N8 whole entry): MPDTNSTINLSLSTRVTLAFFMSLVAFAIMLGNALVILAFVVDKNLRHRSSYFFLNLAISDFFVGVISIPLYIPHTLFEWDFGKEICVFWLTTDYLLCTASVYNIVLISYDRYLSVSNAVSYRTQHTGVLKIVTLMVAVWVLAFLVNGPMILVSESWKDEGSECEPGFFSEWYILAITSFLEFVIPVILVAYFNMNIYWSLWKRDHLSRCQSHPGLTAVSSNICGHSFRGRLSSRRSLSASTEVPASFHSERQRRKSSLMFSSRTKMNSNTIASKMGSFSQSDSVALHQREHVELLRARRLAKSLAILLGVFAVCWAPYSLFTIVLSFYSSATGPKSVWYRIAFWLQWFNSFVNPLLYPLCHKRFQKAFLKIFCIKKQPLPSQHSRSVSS

| SMILES | Ki (Histamine H4 receptor [1]) | Ki (Histamine H3 receptor) | Kb (Histamine H4 receptor [2]) |
| --- | --- | --- | --- |
| N=C(NCc1ccccc1Cl)SCCCc1c[nH]cn1 | 10 nM | 7.94 nM |  |
| COc1ccc(CNC(=N)SCCCc2c[nH]cn2)cc1 | 12.6 nM | 7.94 nM |  |
| Cc1ccc(CCNC(=N)SCCCc2c[nH]cn2)cc1 | 100 nM | 12.6 nM |  |
| N=C(NCc1ccc(I)cc1)SCCCc1c[nH]cn1 | 10 nM | 3.16 nM |  |
| N=C(NCCc1ccc(Cl)cc1)SCCCc1c[nH]cn1 | 31.6 nM | 10 nM |  |
| N=C(NCCC(c1ccccc1)c1ccccc1)SCCCc1c[nH]cn1 | 25.1 nM | 31.6 nM |  |
| N=C(NCc1ccccc1)SCCCc1c[nH]cn1 | 25.1 nM | 7.94 nM | 20 nM |
| COc1ccc(CCNC(=N)SCCCc2c[nH]cn2)cc1 | 158 nM | 20 nM |  |
| N=C(NCc1cccc(Cl)c1)SCCCc1c[nH]cn1 | 15.8 nM | 7.94 nM |  |
| N=C(NCc1ccc(F)cc1)SCCCc1c[nH]cn1 | 25.1 nM | 5.01 nM |  |
| Cc1ccc(CNC(=N)SCCCc2c[nH]cn2)cc1 | 25.1 nM | 6.31 nM |  |
| N=C(NCCc1ccccc1)SCCCc1c[nH]cn1 | 63.1 nM | 20 nM |  |
| N=C(NCCCc1ccccc1)SCCCc1c[nH]cn1 | 50.1 nM | 10 nM |  |
| N=C(NCc1ccc(Cl)c(Cl)c1)SCCCc1c[nH]cn1 | 1.58 nM | 6.31 nM |  |
| N=C(NCc1ccc(Br)cc1)SCCCc1c[nH]cn1 | 10 nM | 2.51 nM |  |
| N=C(N)SCCCc1c[nH]cn1 | 12.6 nM | 2.51 nM |  |
| NC(=NCCCCc1ccccc1)SCCCc1cnc[nH]1 | 63.1 nM | 20 nM |  |
| NC(=NCCCc1cnc[nH]1)NCc1ccccc1 | 25.1 nM | 79.4 nM |  |
| NC(=NCCc1ccc(Br)cc1)SCCCc1cnc[nH]1 | 39.8 nM | 7.94 nM |  |
| N=C(NC=C(c1ccccc1)c1ccccc1)NCCCc1c[nH]cn1 | 158 nM | 316 nM |  |
| NC(=NCc1ccc(Cl)cc1)SCCCc1cnc[nH]1 [CLOBENPROPIT] | 10 nM |  |  |
| N=C(N)SCCc1cnc[nH]1 [IMETIT] | 6.31 nM | 1.58 nM |  |
| NC(=NCCc1ccc(I)cc1)SCCCc1cnc[nH]1 [IODOPHENPROPIT HYDROBROMIDE] | 15.8 nM | 7.94 nM |  |
